Laboratory results reported in PubChem BioAssay (NCI).
Values joined by “and” are separate entries in the source; they are usually repeats but may differ in a detail not shown here. Identical values can stand only once.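 Compound exposure: 48 hours, 5 concentrations, 96-well plates. Here, GI50 denotes the concentration required for 50% inhibition of growth. TGI: total growth inhibition.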

Assays:
Assay in all cases: inhibition of tumour cell growth, NCI panel, 48 h
IGROV1 ovarian = system: IGROV1 ovarian
UACC-62 melanoma = system: UACC-62 melanoma
SK-MEL-28 melanoma = system: SK-MEL-28 melanoma
U251 CNS = system: U251 CNS
MCF7 breast = system: MCF7 breast
SK-MEL-2 melanoma = system: SK-MEL-2 melanoma
ACHN renal = system: ACHN renal
EKVX NSCLC = system: EKVX NSCLC
SNB-75 CNS = system: SNB-75 CNS
SK-OV-3 ovarian = system: SK-OV-3 ovarian

SMILES | GI50 (IGROV1 ovarian) | TGI (IGROV1 ovarian) | GI50 (UACC-62 melanoma) | TGI (UACC-62 melanoma) | GI50 (SK-MEL-28 melanoma) [µM] | TGI (SK-MEL-28 melanoma) | GI50 (U251 CNS) | TGI (U251 CNS) | GI50 (MCF7 breast) | TGI (MCF7 breast) | GI50 (SK-MEL-2 melanoma) | TGI (SK-MEL-2 melanoma) | GI50 (ACHN renal) [µM] | TGI (ACHN renal) [µM] | GI50 (EKVX NSCLC) | TGI (EKVX NSCLC) | GI50 (SNB-75 CNS) | TGI (SNB-75 CNS) | GI50 (SK-OV-3 ovarian) | TGI (SK-OV-3 ovarian)
O=C1C=CC(=Nc2cc(Br)c(O)c(Br)c2)C=C1 | 22.7 µM | 68 µM | 25.6 µM | 93.2 µM | 31.7 | > 100 µM | 17.8 µM | 99.1 µM | 7.87 µM | > 100 µM | 23 µM | 75.2 µM | 18.9 | 46.3 | 52 µM | > 100 µM | 27.5 µM | > 100 µM | 52.8 µM | > 100 µM
Cc1csc(/C=C/C(=O)c2nnn(-c3ccnc4c(C(F)(F)F)cccc34)c2C)c1 | > 100 µM | > 100 µM | 62.2 µM | > 100 µM | 71.1 | > 100 µM | 39.2 µM | > 100 µM | > 100 µM | > 100 µM | > 100 µM | > 100 µM | > 100 | > 100 | 69.3 µM | > 100 µM | 27.3 µM | 99.4 µM | 89.1 µM | > 100 µM
O=C(O)C1(C(=O)O)CCC1.[NH2-].[NH2-].[Pt+2] | 47.2 µM and 91.8 µM | 130 µM and 194 µM | 35.1 µM and > 114 µM | 140 µM and > 250 µM | 174 | > 246 µM | 67.2 µM and 162 µM | 183 µM and > 250 µM | 137 µM and 248 µM | > 250 µM | 161 µM and > 250 µM | 244 µM and > 250 µM | 81.2 | > 239 | 194 µM and > 250 µM | > 250 µM | 108 µM and > 114 µM | 247 µM and > 250 µM | 172 µM and > 240 µM | 243 µM and > 250 µM
C=CC(=O)Nc1cc(C)ccc1Nc1nc(Nc2cc(OC)ncc2C)ncc1C(F)(F)F | 0.244 µM | 1.25 µM | 0.0725 µM | 0.71 µM | 0.0883 | 1.08 µM | 0.758 µM | > 100 µM | 0.864 µM | > 32.8 µM | 0.313 µM | 1.85 µM | 0.397 | 2.07 | 0.438 µM | 3.1 µM | 0.285 µM | 1.45 µM | 4.09 µM | > 100 µM
O=C(Cc1ccc(F)c(F)c1)Nc1cc(C2(C(F)(F)F)CC2)nn1Cc1ccccc1 | 4.47 µM | > 15 µM | 4.33 µM | > 15 µM | 4.81 | > 15 µM | 4.61 µM | > 15 µM | 3.9 µM | > 15 µM | 4.4 µM | > 15 µM | 3.85 | 14.2 | 2.98 µM | 12.2 µM | 0.747 µM | 7.09 µM | 3.56 µM | 11.8 µM
CC(C)O/N=C/c1cc(NC(=S)OC(C)C)ccc1Cl |  | > 94.1 µM |  | > 69.3 µM |  | > 91.8 µM |  | > 70.2 µM |  | > 68.8 µM |  | > 61.7 µM |  | 97.6 |  | > 75.2 µM |  | 57.2 µM |  | 98.3 µM
Cc1nc2ccccc2c(/C=C/c2ccc(Cl)cc2)c1C(=O)/C=C/c1ccc(C(F)(F)F)cc1 | 0.282 µM | 1.56 µM | 0.939 µM | 2.29 µM | 0.369 | 1.29 µM | 0.264 µM | 0.865 µM | 0.303 µM | 1.55 µM | 0.627 µM | 2.17 µM | 0.241 | 0.594 | 0.865 µM | 2.31 µM | 1.28 µM | 2.57 µM | 1.67 µM | 3.1 µM
[N-]=[N+]=NCCCCCC(=O)OC(C(=O)c1ccccc1)c1cccc(OCC(=O)NCCOCCOCCNC(=O)CCCC[C@@H]2SC[C@@H]3NC(=O)N[C@@H]32)c1 (stereo partly drawn) | > 100 µM | > 100 µM | > 100 µM | > 100 µM | > 100 | > 100 µM | > 100 µM | > 100 µM | 51.3 µM | > 100 µM | > 100 µM | > 100 µM | > 100 | > 100 | > 100 µM | > 100 µM | 95.8 µM | > 100 µM | > 100 µM | > 100 µM
COc1cc(N(C)C)c(OC)cc1/C=C\c1ccnc2ccccc12 |  | > 10 µM |  | > 10 µM |  | > 10 µM |  | > 10 µM |  | > 10 µM |  | 8.03 µM |  | > 10 |  | > 10 µM |  | 9.62 µM |  | > 10 µM
COc1cc(C(=O)N2CCN(c3ncnc4ccccc34)CC2)c(N)cc1OCc1ccccc1 | 17.8 µM | 41.6 µM | 12 µM | 24.3 µM | 16.5 | 30.5 µM | 11.3 µM | 23.3 µM | 8.29 µM | 22.7 µM | 16.5 µM | 41.3 µM | 14 | 37.6 | 22.5 µM | 48.5 µM | 7.63 µM | 20.8 µM | 20.9 µM | 49 µM
O=C(Nc1ccncc1)C(=O)c1cn(S(=O)(=O)c2ccc(Cl)cc2)c2ccccc12 | 3.29 µM | > 100 µM | 0.503 µM | 14.2 µM | 1.06 | > 50.4 µM | 1.06 µM | 17.8 µM | 0.354 µM | 38.7 µM | 3.24 µM | 27.3 µM | 3.49 | > 59.6 | 2.62 µM | > 100 µM | 1.23 µM | 10.9 µM | 19.6 µM | 73.8 µM
O=c1cc(-c2cccc3c2Sc2ccccc2S3)oc(N2CCOCC2)c1 | 4.08 µM | 17.7 µM | 6.55 µM | 22.1 µM | 11.1 | 24.1 µM | 8.94 µM | 21.7 µM | 5.94 µM | 22.4 µM | 5.71 µM | 19.3 µM | 11.4 | 26.5 | 10.2 µM | 25 µM | 4.97 µM | 19.9 µM | 13.4 µM | 27.3 µM
O=C(NCCCO)c1cc(Cl)ccc1O | 3.94 µM | 17 µM | 3.09 µM | 15.8 µM | 4.45 | 17.3 µM | 1.11 µM | 12.1 µM | 2.64 µM | 11.9 µM | 2.82 µM | 6.54 µM | 3.73 | 13.2 | 2 µM | 18.1 µM | 2.44 µM | 15.1 µM | 3.31 µM | 12.3 µM
Cc1cc(N2CCOCC2)nc(N[C@@H]2CCC[C@H](Nc3ccnc4cc(Cl)ccc34)C2)n1 | 2.23 µM | 6.6 µM | 1.82 µM | 3.43 µM | 2.01 | 3.8 µM | 2.1 µM | 4.4 µM | 1.76 µM | 4.15 µM | 2.07 µM | 4.02 µM | 1.89 | 3.91 | 2.86 µM | 13.2 µM | 1.6 µM | 4.01 µM | 3.44 µM | 11.9 µM
Nc1nc2c(ncn2C2C=CC(CO)C2)c(=O)[nH]1 (stereo not drawn) |  | > 100 µM |  | > 100 µM |  | > 100 µM |  | > 100 µM |  | > 100 µM |  | > 100 µM |  | > 100 |  | > 100 µM |  | > 100 µM |  | > 100 µM
CC(C)=CCC/C(C)=C/CC/C(C)=C/CSc1ccccc1C(=O)O | 29.3 µM | 70.5 µM and 35.5 µM |  | 35 µM and 34 µM | 25.7 | 62 µM and 54.3 µM | 23.4 µM | 59.9 µM and 44.5 µM | 33.5 µM | 99.1 µM and 56 µM | 22.6 µM | 45.4 µM and 29.4 µM |  | > 100 | 29.8 µM | > 84.9 µM and 45.1 µM | > 66.4 µM | > 100 µM and 42.1 µM | 37.6 µM | > 100 µM and 62.8 µM
CO/N=C(\C)c1ccc(Nc2cc(-c3ccccc3)nc3ccc(OC)cc23)cc1 | 4.56 µM | > 100 µM | 1.97 µM | 4.41 µM | 29.4 | > 100 µM | 2.05 µM | 4.79 µM | 5.01 µM | 24.4 µM | 6.27 µM | > 100 µM | 3.27 | 12.5 | 3.27 µM | 8.53 µM | 23 µM | > 100 µM | 15.2 µM | 60.4 µM
C/C1=C/C(=O)O[C@@H]2C[C@@H](CC[C@H](C)/C=C\C=C\CC1)O[C@@](O)([C@@H]1CSC(=O)N1)C2 |  | 0.547 µM |  | > 10 µM |  | 5.41 µM |  | > 10 µM |  | > 10 µM |  | > 10 µM |  | > 10 |  | > 5.52 µM |  | 0.332 µM |  | > 9.4 µM
NCCCCCCCn1c2c(c3ccccc3c1=O)C(=O)c1ccccc1-2 | 1.43 µM | 3.58 µM | 2.01 µM | 3.85 µM | 1.75 | 3.23 µM | 2.48 µM | 7.07 µM | 1.1 µM | 2.71 µM | 2.33 µM | 5.68 µM | 1.6 | 3.47 | 10 µM | 21.7 µM | 2.17 µM | 4.55 µM | 2.96 µM | 9.24 µM
NCC1OC(n2cnc3c(N)ncnc32)CC1O (stereo not drawn) |  | > 100 µM |  | > 100 µM |  | > 100 µM |  | > 100 µM |  | > 100 µM |  | > 100 µM |  | > 100 |  | > 100 µM |  | > 100 µM |  | > 100 µM
CC1CCCC(C(O)CC2CC(=O)NC(=O)C2)C1O (stereo not drawn) |  | > 100 µM |  | > 100 µM |  | > 100 µM |  | > 100 µM |  | > 100 µM |  | > 100 µM |  | > 100 |  | > 100 µM |  | > 100 µM |  | > 100 µM
Cc1nnc(-c2cccc(-c3ccc(C(=O)NCC4CC4)cc3)c2)o1 | > 25 µM | > 25 µM | > 25 µM | > 25 µM | > 25 | > 25 µM | > 25 µM | > 25 µM | > 25 µM | > 25 µM | > 25 µM | > 25 µM | > 25 | > 25 | > 25 µM | > 25 µM | > 25 µM | > 25 µM | > 25 µM | > 25 µM
CCN(CC)c1ccc(C(O)C2=CC(=O)c3ccccc3C2=O)cc1 (stereo not drawn) | 1.53 µM | 3.07 µM | 1.65 µM | 3.34 µM | 1.21 | 2.6 µM | 1.32 µM | 7.34 µM | 1.58 µM | 6.31 µM | 1.57 µM | 3.71 µM | 1.75 | 4.6 | 4.01 µM | 15.7 µM | 1.87 µM | 5.57 µM | 2.66 µM | 6.82 µM
